Data reported in US20240216395A1, “19-NOR C3,3-DISUBSTITUTED C21 -N-PYRAZOLYL STEROID FOR USE IN TREATING MAJOR DEPRESSIVE DISORDER AND […]” (priority 2021, published 2024).

Key:
[1] = system: adult female subjects with severe postpartum depression (PPD); test: Phase 3 PPD study (NCT02978326): safety, TEAEs and NNH; assay type: in vivo, human
Experimental: Safety Endpoints: Safety and tolerability of study drug was evaluated by frequency of adverse events; severity, relatedness, and seriousness of adverse events; clinical laboratory measures, vital signs, ECGs; and concomitant medication usage. Suicidality was monitored using the C-SSRS.
Adverse events were coded using Medical Dictionary for Regulatory Activities (MedDRA™) Version 19.1 or higher. […] The incidence of adverse events was also presented by maximum severity and relationship to study drug. Vital signs, clinical laboratory measures, ECG, concomitant medication usage, and C-SSRS data was summarized by treatment, where applicable. Out-of-range safety endpoints could be categorized as low or high, where applicable. Safety data was summarized and examined for possible relationships between subject characteristics and plasma Compound (1) concentrations, as appropriate. Suicidality data collected using the C-SSRS at baseline and at each visit during the active Treatment Period was listed for all subjects. The C-SSRS listings included behavior type and/or category for suicidal ideation and suicidal behavior of the C-SSRS.
Sustained Response or Remission was defined as continued categorization of a Responder/Remitter at both days 15 and 45. Tolerability and safety outcomes included number needed to harm (NNH) for discontinuation due to an AE, as well as individual safety events of interest. NNH was calculated for (1) AEs with incidence ≥2% with Compound (1) and higher rate than placebo, and (2) the proportion of patients in each treatment arm discontinuing the study drug due to an AE. 95% confidence intervals (CIs) were calculated based upon Wilson score intervals.

[2] = system: nondependent, recreational users of CNS depressants; test: Abuse potential study, dose selection phase: TEAEs; assay type: in vivo, human
Experimental: After a screening period of up to 21 days, eligible participants were randomized 3:1 to receive single escalating doses of Compound (1) (60, 80, or 90 mg) or matching placebo in 3 separate cohorts; Compound (1) was administered during 4 days of inpatient administration (FIG. 30A). Sentinel dosing was employed for each cohort, with one participant randomized to receive Compound (1) and one to receive placebo on Day 1. The remaining 6 participants (Compound (1), 5; placebo, 1) were dosed approximately 24 hours later after monitoring the safety and tolerability endpoints. Dose-escalation cohorts were separated by at least 7 days. If a dose was not well tolerated based on the safety data, doses in subsequent cohorts were to be modified, and Compound (1) dose was not allowed to exceed 90 mg. Participants underwent a 1-day, follow-up visit 7 (±2) days after the end of the treatment and were not permitted to participate in the main study.
For the first part, dose selection, endpoints included the observer-rated Modified Observer's Assessment of Alertness/Sedation (MOAA/S) scores along with safety and tolerability endpoints which included the Columbia-Suicide Severity Rating Scale (C-SSRS), frequency and severity of adverse events (AE) and serious adverse events (SAEs), and changes from baseline in clinical laboratory assessments, vital signs, and electrocardiogram (ECG).
The dose selection safety set included all participants who received 1 dose of Compound (1). The main study qualification safety set included all participants who received ≥1 dose of alprazolam. For the treatment phase, the randomized set included all participants who were randomized and the safety set included all participants who received ≥1 dose of Compound (1) or alprazolam. The completer set included all participants in the randomized set who completed all treatment periods, had sufficient data for evaluation of the primary endpoint, and had ≥1 observation within 2 hours of Tmax for each treatment for Drug Liking VAS scores. […] The PK set included all participants in the treatment phase who received 1 dose of Compound (1) and had 1 PK sample after dosing.

## C[C@@]1(O)CC[C@H]2[C@H](CC[C@@H]3[C@@H]2CC[C@]2(C)[C@@H](C(=O)Cn4cc(C#N)cn4)CC[C@@H]32)C1 [Compound (1), 1-(2-((3R,5R,8R,9R,10S,13S,14S,17S)-3-hydroxy-3,13-dimethylhexadecahydro-1H-cyclopenta[a]phenanthren-17-yl)-2-oxoethyl)-1H-pyrazole-4-carbonitrile]
[1]; 30 mg
  Loss of consciousness or syncope: no reports of loss of consciousness or syncope
  NNH vs placebo: AE leading to treatment discontinuation: 78 (ns)
  NNH vs placebo: Diarrhoea: 28 (ns)
  NNH vs placebo: Dizziness: 46 (ns)
  NNH vs placebo: Dry mouth (Gastrointestinal disorders): 26 (ns)
  NNH vs placebo: Dry mouth (under Infections and infestations): 41 (ns)
  NNH vs placebo: Fatigue: 41 (ns)
  NNH vs placebo: Pain in extremity: 84 (ns)
  NNH vs placebo: Sedation: 20 (ns)
  NNH vs placebo: Somnolence: 23 (ns)
  NNH vs placebo: Upper respiratory tract infection: 16 (ns)
  Overall tolerability: generally well tolerated
[1]; 30 mg (N = 78)
  Diarrhoea: 5 (6.4%) n (%)
  Dizziness: 6 (7.7%) n (%)
  Dry mouth (Gastrointestinal disorders): 3 (3.8%) n (%)
  Dry mouth (listed under Infections and infestations): 3 (3.8%) n (%)
  Fatigue: 3 (3.8%) n (%)
  Pain in extremity: 2 (2.6%) n (%)
  Sedation: 4 (5.1%) n (%)
  Somnolence: 12 (15.4%) n (%)
  Subjects with an AE leading to treatment discontinuation: 1 (1.3%) n (%)
  Upper respiratory tract infection: 6 (7.7%) n (%)
[1]; clinical trial of Example 4
  Patients with a TEAE whose TEAEs were mild and moderate in severity: 94%
[2]; 60 mg (n = 6)
  Any TEAE: 5 (83.3) n (%)
  Asthenopia (TEAE): 0 n (%)
  Blood bilirubin increased (TEAE): 0 n (%)
  Disturbance in attention (TEAE): 0 n (%)
  Dizziness postural (TEAE): 1 (16.7) n (%)
  Euphoric mood (TEAE): 0 n (%)
  Feeling abnormal (TEAE): 0 n (%)
  Feeling hot (TEAE): 0 n (%)
  Feeling of relaxation (TEAE): 0 n (%)
  Headache (TEAE): 1 (16.7) n (%)
  Hunger (TEAE): 0 n (%)
  Hyperhidrosis (TEAE): 0 n (%)
  Irritability (TEAE): 0 n (%)
  Lacrimation increased (TEAE): 0 n (%)
  Mild TEAE: 5 (83.3) n (%)
  Moderate TEAE: 0 n (%)
  Orthostatic HR response increase (TEAE): 1 (16.7) n (%)
  Paresthesia (TEAE): 0 n (%)
  Somnolence (TEAE): 4 (66.7) n (%)
  Toothache (TEAE): 0 n (%)
  Tremor (TEAE): 0 n (%)
  Vision blurred (TEAE): 0 n (%)
  Yawning (TEAE): 0 n (%)
[2]; 80 mg (n = 6)
  Any TEAE: 5 (83.3) n (%)
  Asthenopia (TEAE): 1 (16.7) n (%)
  Blood bilirubin increased (TEAE): 0 n (%)
  Disturbance in attention (TEAE): 1 (16.7) n (%)
  Dizziness postural (TEAE): 2 (33.3) n (%)
  Euphoric mood (TEAE): 1 (16.7) n (%)
  Feeling abnormal (TEAE): 0 n (%)
  Feeling hot (TEAE): 0 n (%)
  Feeling of relaxation (TEAE): 2 (33.3) n (%)
  Headache (TEAE): 0 n (%)
  Hunger (TEAE): 0 n (%)
  Hyperhidrosis (TEAE): 0 n (%)
  Irritability (TEAE): 1 (16.7) n (%)
  Lacrimation increased (TEAE): 0 n (%)
  Mild TEAE: 5 (83.3) n (%)
  Moderate TEAE: 0 n (%)
  Orthostatic HR response increase (TEAE): 0 n (%)
  Paresthesia (TEAE): 1 (16.7) n (%)
  Somnolence (TEAE): 5 (83.3) n (%)
  Toothache (TEAE): 0 n (%)
  Tremor (TEAE): 0 n (%)
  Vision blurred (TEAE): 1 (16.7) n (%)
  Yawning (TEAE): 0 n (%)
[2]; 90 mg
  Moderate TEAEs: one instance of somnolence
[2]; 90 mg (n = 6)
  Any TEAE: 6 (100) n (%)
  Asthenopia (TEAE): 0 n (%)
  Blood bilirubin increased (TEAE): 0 n (%)
  Disturbance in attention (TEAE): 0 n (%)
  Dizziness postural (TEAE): 0 n (%)
  Euphoric mood (TEAE): 4 (66.7) n (%)
  Feeling abnormal (TEAE): 1 (16.7) n (%)
  Feeling hot (TEAE): 0 n (%)
  Feeling of relaxation (TEAE): 1 (16.7) n (%)
  Headache (TEAE): 0 n (%)
  Hunger (TEAE): 0 n (%)
  Hyperhidrosis (TEAE): 1 (16.7) n (%)
  Irritability (TEAE): 1 (16.7) n (%)
  Lacrimation increased (TEAE): 0 n (%)
  Mild TEAE: 5 (83.3) n (%)
  Moderate TEAE: 1 (16.7) n (%)
  Orthostatic HR response increase (TEAE): 0 n (%)
  Paresthesia (TEAE): 0 n (%)
  Somnolence (TEAE): 4 (66.7) n (%)
  Toothache (TEAE): 0 n (%)
  Tremor (TEAE): 1 (16.7) n (%)
  Vision blurred (TEAE): 0 n (%)
  Yawning (TEAE): 1 (16.7) n (%)
[2]; All doses (n = 18)
  Blood bilirubin increased (TEAE): 0 n
  Feeling hot (TEAE): 0 n
  Hunger (TEAE): 0 n
  Lacrimation increased (TEAE): 0 n
  Toothache (TEAE): 0 n
